Experimental data reported in patent US12077503B2, “Substituted cyclic amides and their use as herbicides” (FMC CORPORATION, priority 2015, dated 2024).

Experiments:
Type in all cases: in vivo
corn (Zea mays) [1] = assay: Test A preemergence
Summary of the method: (§1)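 Preemergence directed soil spray on seeded pots, or postemergence application to plants 2–10 cm, one- to two-leaf. Solvent mixture non-phytotoxic, with surfactant. Scored ~10 d later, visually, 0–100 vs untreated.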

[2] = system: velvetleaf (Abutilon theophrasti); assay: Test A preemergence
Summary of the method: as §1

[3] = system: crabgrass, large (Digitaria sanguinalis); assay: Test A preemergence
Summary of the method: as §1

[4] = system: pigweed (Amaranthus retroflexus); assay: Test A preemergence
[5] = system: morningglory (Ipomoea spp.); assay: Test A preemergence
Summary of the method: as §1

[6] = system: giant foxtail (Setaria faberii); assay: Test A preemergence
Summary of the method: as §1

[7] = system: barnyardgrass (Echinochloa crus-galli); assay: Test A preemergence
Summary of the method: as §1

[8] = system: wheat (Triticum aestivum); assay: Test A preemergence
Summary of the method: as §1

rice (Oryra sativa) = assay: Test B flooded paddy test; conditions: Flood, 250 g ai/ha; 0 to 100 scale where 0 is no effect and 100 is complete control; 13 to 15 d
Summary of the method: (§2)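 Flooding to 3 cm over soil accompanied treatment, which consisted of adding compound to the standing water around 2-leaf plants; depth was then maintained. Visual assessment versus controls followed at 13 to 15 d (scale 0–100, 0 meaning no effect).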

[9] = system: ducksalad (Heteranthera limosa); assay: Test B flooded paddy test; conditions: Flood, 250 g ai/ha; 0 to 100 scale where 0 is no effect and 100 is complete control; 13 to 15 d
Summary of the method: as §2

[10] = system: sedge, umbrella (small-flower umbrella sedge, Cyperus difformis); assay: Test B flooded paddy test; conditions: Flood, 250 g ai/ha; 0 to 100 scale where 0 is no effect and 100 is complete control; 13 to 15 d
Summary of the method: as §2

[11] = system: barnyardgrass (Echinochloa crus-galli); assay: Test B flooded paddy test; conditions: Flood, 250 g ai/ha; 0 to 100 scale where 0 is no effect and 100 is complete control; 13 to 15 d
Summary of the method: as §2

corn (Zea mays) [12] = assay: Test A postemergence
Summary of the method: as §1

[13] = system: velvetleaf (Abutilon theophrasti); assay: Test A postemergence
Summary of the method: as §1

[14] = system: crabgrass, large (Digitaria sanguinalis); assay: Test A postemergence
Summary of the method: as §1

[15] = system: pigweed (Amaranthus retroflexus); assay: Test A postemergence
Summary of the method: as §1

[16] = system: morningglory (Ipomoea spp.); assay: Test A postemergence
Summary of the method: as §1

[17] = system: giant foxtail (Setaria faberii); assay: Test A postemergence
Summary of the method: as §1

[18] = system: barnyardgrass (Echinochloa crus-galli); assay: Test A postemergence
Summary of the method: as §1

[19] = system: wheat (Triticum aestivum); assay: Test A postemergence
Summary of the method: as §1

[20] = 125 g ai/ha, preemergence, 0 to 100 scale (0 no effect, 100 complete control)
[21] = Preemergence, 500 g ai/ha, 0 is no effect, 100 is complete control
[22] = 500 g ai/ha, postemergence, 0 to 100 scale, 0 no effect, 100 complete control
[23] = Postemergence, 125 g ai/ha, visual injury, 0 to 100 scale (0 no effect, 100 complete control), approx. 10 d

O=C1NCC(c2cccnc2)C1C(=O)Nc1ccccc1C(F)(F)F (racemic) [Compound 352]
0: Plant response rating, Corn (corn (Zea mays) [1]; [20]) | Corn plant response rating (0 to 100 scale) (corn (Zea mays) [1]; [21]) | Plant response rating, Velvetleaf [2, 20] | Velvetleaf plant response rating (0 to 100 scale) [2, 21] | Plant response rating, Crabgrass, Large [3, 20] | Crabgrass, Large plant response rating (0 to 100 scale) [3, 21] | Plant response rating, Pigweed [4, 20] | Pigweed plant response rating (0 to 100 scale) [4, 21] | Plant response rating, Morningglory [5, 20] | Morningglory plant response rating (0 to 100 scale) [5, 21] | Plant response rating, Foxtail, Giant [6, 20] | Foxtail, Giant plant response rating (0 to 100 scale) [6, 21] | Plant response rating, Barnyardgrass [7, 20] | Barnyardgrass plant response rating (0 to 100 scale) [7, 21] | Plant response rating, Wheat [8, 20] | Wheat plant response rating (0 to 100 scale) [8, 21] | Plant response rating, Rice (rice (Oryra sativa)) | Plant response rating, Ducksalad [9] | Plant response rating, Sedge, Umbrella [10] | Plant response rating, Barnyardgrass [11] | Plant response rating, Corn (corn (Zea mays) [12]; [22]) | Plant response rating, Corn (corn (Zea mays) [12]; [23]) | Plant response rating, Velvetleaf [13, 22] | Plant response rating, Velvetleaf [13, 23] | Plant response rating, Crabgrass, Large [14, 22] | Plant response rating, Crabgrass, Large [14, 23] | Plant response rating, Pigweed [15, 22] | Plant response rating, Pigweed [15, 23] | Plant response rating, Morningglory [16, 22] | Plant response rating, Morningglory [16, 23] | Plant response rating, Foxtail, Giant [17, 22] | Plant response rating, Foxtail, Giant [17, 23] | Plant response rating, Barnyardgrass [18, 22] | Plant response rating, Barnyardgrass [18, 23] | Plant response rating, Wheat [19, 22] | Plant response rating, Wheat [19, 23]
